From PubChem BioAssay (NCI)
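All cell lines were grown in 96-well plates and treated with compound for 48 hours. TGI marks complete inhibition of growth.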

Columns and labels:
Experiment in all cases: growth of human tumour cells (NCI), 48 h
EKVX NSCLC = system: EKVX NSCLC
UO-31 renal = system: UO-31 renal
BT-549 breast = system: BT-549 breast
KM12 colon = system: KM12 colon
SF-295 CNS = system: SF-295 CNS
K-562 leukemia = system: K-562 leukemia
ACHN renal = system: ACHN renal
HOP-92 NSCLC = system: HOP-92 NSCLC
SF-539 CNS = system: SF-539 CNS
OVCAR-3 ovarian = system: OVCAR-3 ovarian
HS 578T breast = system: HS 578T breast
T-47D breast = system: T-47D breast

Structure (SMILES) | TGI (EKVX NSCLC) | TGI (UO-31 renal) | TGI (BT-549 breast) | TGI (KM12 colon) | TGI (SF-295 CNS) | TGI (K-562 leukemia) | TGI (ACHN renal) | TGI (HOP-92 NSCLC) | TGI (SF-539 CNS) | TGI (OVCAR-3 ovarian) | TGI (HS 578T breast) | TGI (T-47D breast)
O=C(COc1ccc(OCC(=O)N2C(=O)CC(=O)N(c3ccc(Cl)cc3)C2=S)cc1)N1C(=O)CC(=O)N(c2ccc(Cl)cc2)C1=S | > 100 µM | > 100 µM | 87.8 µM | 41.6 µM | > 100 µM | > 100 µM | > 100 µM | 70.4 µM |  |  |  | 
COc1ccc(C#Cn2nnc3ccccc32)cc1 | > 100 µM | 4.47 µM | > 100 µM | > 100 µM | > 100 µM | > 100 µM | > 100 µM | > 100 µM | > 100 µM | > 100 µM | > 100 µM | 
Cc1cc2[nH]c3c(C#N)c(-c4ccccc4)c(N=Nc4ccc(F)cc4)c(=O)n3c2cc1C | > 100 µM | > 100 µM | > 100 µM |  | > 100 µM |  | > 100 µM |  | > 100 µM | 39.8 µM |  | > 100 µM
CC(C)(C)C1CCC2c3c([nH]c4ccccc34)C3C(=O)N(c4ccc(C#N)cc4)C(=O)C3C2C1 (configuration not stated) | 41.2 µM | 33.2 µM | 65.5 µM |  | > 100 µM | 30.4 µM | 65.3 µM | 22.6 µM | 43.2 µM | 90.8 µM | 37 µM | 
N#CC1(C#N)C(C#N)(C#N)C1(C#N)C(N)=O | > 100 µM | > 100 µM | > 100 µM | > 100 µM | > 100 µM | > 100 µM | > 100 µM | > 100 µM |  |  | > 100 µM | > 100 µM
Cc1ccc(S(=O)(=O)NC(=O)NC(Cc2ccc(O)cc2)C(=O)O)cc1 (configuration not stated) |  | > 100 µM | > 100 µM | > 100 µM | > 100 µM | > 100 µM |  | > 100 µM | > 100 µM |  | > 100 µM | > 100 µM
CC(C)(C)OC(=O)N/C(C=O)=C\C1CCCCC1 | 35.4 µM | 30.2 µM | 70.6 µM | 77.6 µM | 99.3 µM | 46.2 µM | 86.4 µM |  | 87.6 µM | 73.1 µM | 84.7 µM | 84.5 µM
CCOC(=O)c1ccc(Nc2nc3ccccc3nc2-c2cccs2)cc1 | > 100 µM | > 100 µM |  | > 100 µM | > 100 µM | > 100 µM | > 100 µM |  | > 100 µM | > 100 µM | > 100 µM | 56.2 µM
CNc1nnc(CCCCCCCCc2nnc(NC)o2)o1 | > 100 µM | > 100 µM | > 100 µM | > 100 µM | > 100 µM | > 100 µM | > 100 µM | > 100 µM | > 100 µM | 44.9 µM |  | 
CC[C@@]1(O)C(=O)OCc2c1cc1n(c2=O)Cc2c-1nc1ccc(O)cc1c2[Si](C)(C)C(C)(C)C | 15.8 µM | 0.0357 µM | 1.17 µM | 0.131 µM | 1.32 µM | > 94.5 µM |  | 2.31 µM | < 0.01 µM | 0.0752 µM | > 57.9 µM | 
